Source: US10137169B2, “Compositions and uses thereof” (FOLLICUM AB, priority 2011, dated 2018)
Entries after “also recorded” stand apart in the source; their conditions may differ.

Experiments:
[1] = tested on: Mice (C57BL/6); assay: In vivo study of hair growth effect in mice, hair growth score (Example B); set-up: Hair growth score / Hair growth score, Mean: scale not given here; conditions: for day from which hair growth was evident / hair growth effect / Hair growth score, Mean: 60 nM s.c. on Days 1, 5 and 9; for hair growth effect: assessment to day 16; for Hair growth score, Mean: mean of 5 animals
Procedure: Mice (C57BL/6) were used at an age of 6 to 8 weeks.
• Selection of animals in telogen phase of hair growth. • Clipping of dorsal back of animals • Subcutaneous injection of test peptide/vehicle • Visual analysis: Percentage anagen induction; Mean hair growth score; Visual melanogenesis: • Histological analysis: Follicle count in subcutis; Morphometry for skin thickness. Treatment Groups • Animals were assigned randomly to treatment groups (see Table 3)
• Animals were administered the specified treatment on Days 1, 5 and 9 • Treatment were administered by subcutaneous injection into dorsal clipped skin Scoring Criteria • The effect of the treatments was observed and scored daily according to the criteria in Table 4

[2] = tested on: Mice (C57BL/6); assay: Observation of melanogenesis / anagen induction, external and peeled skin (Example D); format: in vivo; conditions: 60 nM; for Black colour in peeled skin (day 16): animals out of 5; for % anagen induction**: with respect to black colour in peeled skin; for Black colour in peeled skin (day 16) / % anagen induction**: day 16; for % anagen induction*: with respect to external skin colour change from pink to black
Source text: (§1) Animals and treatments are as described above in Example B.
(§2) All animals were sacrificed on day 16.
Following completion of the term of hair growth assessment for Example B, the animals were euthanized and dorsal skin peeled and removed for observation of the internal surface.
The hair growth cycle consists of three phases: a resting telogen phase (C57BL/6 skin is a pale pink colour), an active hair growth anagen phase (where the skin becomes dark gray or black), and finally a catagen phase (where hair growth stops, and the skin transitions back to the telogen phase, returning to a pale pink colour).
(§3) In the present study, the animals were preselected for pink skin (telogen phase) and the test polypeptide was administered by subcutaneous/topical route. A good hair growth promoter triggers the transition from the resting telogen phase to the active anagen phase, and thus a transition from light skin to dark skin. This dark pigmentation may result from the collection of melanin in the hair follicles, in preparation for new hair growth during the anagen phase. Melanin synthesis of follicular melanocytes is strictly coupled to the anagen phase, ceases during catagen and is absent in telogen phase. […] Upon termination, the dorsal skin of the animals was then excised out by peeling and the peeled skin reversed and observed for the induction of melanogenesis indicated by visual blackening. […] A good hair growth promoter increases no. of follicles in sub cutis and skin thickness.

[3] = tested on: Mice (C57BL/6); assay: Histological analysis of peeled skin: follicle count in subcutis and skin thickness (Example D); format: in vivo; set-up: Skin thickness: unit not given here; conditions: Mean ± sem, day 16, 60 nM
Procedure: as §1, §2
Peeled skin sections were prepared for histological analysis as described in Example A. Follicle count in the subcutis and skin thickness were then measured.
as §3

[4] = tested on: Mice (C57BL/6); assay: In vivo study of hair growth effect in mice of the wildtype osteopontin fragment (Example C); set-up: Hair growth score, Mean: scale not given here; conditions: for Hair growth score, Mean: mean of 6 animals
Procedure: Animals, as described above in Example B, were treated as described in Table 6:
• This sequence is a fragment of wildtype mouse osteopontin, and corresponds to the region of the protein from which “FOL-004” is derived (i.e. “FOL-004” is a mutated version of wildtype fragment “FOL-001”). • Animals were administered the specified treatment on Days 1, 5 and 9 • Treatment were administered by subcutaneous injection into dorsal clipped skin Scoring Criteria • The effect of the treatments was observed and scored daily as described in Example B. Results

[5] = tested on: male wtC57BL/6N mice; assay: In vivo study of hair follicle density in mouse skin after intracutaneous injection (Example A); conditions: data not shown
Source text: The modified osteopontin polypeptide sequence SEQ ID NO:1 was cloned into a pCEP4 expression vector by the use of XhoI and BamHI restriction enzyme sites. The pCEP4 expression vector contains an ampicillin resistance gene for expression in bacteria and a hygromycin resistance gene for expression in eukaryotic EBNA cells. The polypeptide containing vector were transformed into competent XL-10 bacteria cells, multiplied and isolated with Qiagen midi prep kit. Isolated vectors were then transfected into human EBNA cells by the use of Fugene transfection reagent according to manufacture protocol (Invitrogen).
Medium from EBNA cell culture containing the produced polypeptide were collected after three to four days of culture. Polypeptides produced by pCEP4 plasmid contain an inserted His-tag, which is used to facilitate the isolation with Ni-sepharose gel chromatography (Invitrogen). Collected medium was diluted with binding buffer (20 mM sodium phosphate, 500 mM sodium chloride, pH 7.8), Ni-sepharose suspension was added before incubation on shaker overnight at 4° C. […]
Protocol for Hematoxylin-staining of paraffin-embedded sections of Group 1 1. […] Mount slide using Permount and coveslip. a) the time depends on the type of hematoxylin used, 20 sec to 10 min (which can be determined by the use of test slides) b) filtrated before use Results

Substance	day from which hair growth was evident [1] [days]	hair growth effect [1]	Hair growth score, Mean ([1]; Day 1)	Hair growth score, Mean ([1]; Day 2)	Hair growth score, Mean ([1]; Day 5)	Hair growth score, Mean ([1]; Day 6)	Hair growth score, Mean ([1]; Day 7)	Hair growth score, Mean ([1]; Day 8)	Hair growth score, Mean ([1]; Day 9)	Hair growth score, Mean ([1]; Day 12)	Hair growth score, Mean ([1]; Day 13)	Hair growth score, Mean ([1]; Day 14)	Hair growth score, Mean ([1]; Day 15)	Hair growth score, Mean ([1]; Day 16)	No. of animals showing hair growth [2]	Skin colour (external) [2]	Skin colour (external): animals with this colour [2]	Black colour in peeled skin (day 16) [2]	% anagen induction** [2] [%]	% anagen induction* [2] [%]	other results
VDTYDGDISVVYGLR (Preferred 15-amino acid peptide) [FOL-005]	5	rapid hair growth; also recorded: particular fast onset of action	0.0	0.0	1.3	1.7	1.9	2.1	2.3	2.7	2.8	2.8	3.0	3.0	5/5	Black	(5/5 animals)	3/5	60	100	Hair growth score ([1]; Day 5, individual animal, 60 nM, 25 μl s.c. on Days 1, 5 and 9): 2.0; Follicle count in subcutis (no.) ([3]; all animals): 34.80 ± 14.58 no.; Skin thickness ([3]; all animals): 348.80 ± 40.05; Follicle count in subcutis (no.) ([3]; animals in anagen only): 58 ± 14.58 no.; Skin thickness ([3]; animals in anagen only): 348.80 ± 40.05
VDVPNGDISLAYGLR (Preferred 15-amino acid peptide (FOL-004))	5	rapid hair growth; also recorded: particular fast onset of action	0.0	0.0	1.7	2.1	2.4	2.5	2.6	2.7	2.7	2.7	2.9	3.0	5/5	Black	(5/5 animals)	1/5	20	100	Follicle count in subcutis (no.) ([3]; all animals): 6.20 ± 5.80 no.; Skin thickness ([3]; all animals): 312.2 ± 15.60; Follicle count in subcutis (no.) ([3]; animals in anagen only): 29 ± 5.8 no.; Skin thickness ([3]; animals in anagen only): 312.2 ± 15.60
VDVPNGRGDSLAYGLR (FOL-001) [fragment of wildtype mouse osteopontin, region from which FOL-004 is derived]	–	–	–	–	–	–	–	–	–	–	–	–	–	–	–	–	–	–	–	–	day at which hair growth effect became evident ([4]; 60 nM s.c. on Days 1, 5 and 9): ~9 days; hair growth effect ([4]; 60 nM s.c. on Days 1, 5 and 9): delayed but detectable hair growth effect; plateau of hair growth score ([4]; 60 nM s.c. on Days 1, 5 and 9): about 1.3; hair growth effect ([4]; 60 nM s.c. on Days 1, 5 and 9, listed as equivalent non-mutated wild type sequence): delayed onset of hair growth stimulation; Hair growth score, Mean ([4]; Day 1, 60 nM s.c. on Days 1, 5 and 9): 0; Hair growth score, Mean ([4]; Day 2, 60 nM s.c. on Days 1, 5 and 9): 0; Hair growth score, Mean ([4]; Day 5, 60 nM s.c. on Days 1, 5 and 9): 0.17; Hair growth score, Mean ([4]; Day 6, 60 nM s.c. on Days 1, 5 and 9): 0.17; Hair growth score, Mean ([4]; Day 7, 60 nM s.c. on Days 1, 5 and 9): 0.17; Hair growth score, Mean ([4]; Day 8, 60 nM s.c. on Days 1, 5 and 9): 0.17; Hair growth score, Mean ([4]; Day 9, 60 nM s.c. on Days 1, 5 and 9): 0.58; Hair growth score, Mean ([4]; Day 12, 60 nM s.c. on Days 1, 5 and 9): 1.17; Hair growth score, Mean ([4]; Day 13, 60 nM s.c. on Days 1, 5 and 9): 1.17; Hair growth score, Mean ([4]; Day 14, 60 nM s.c. on Days 1, 5 and 9): 1.33; Hair growth score, Mean ([4]; Day 15, 60 nM s.c. on Days 1, 5 and 9): 1.33; maximum effect relative to that observed with FOL-004 ([4]; hair growth score): less than 50%
wildtype mouse osteopontin: wildtype mouse osteopontin protein, comparator in Example A	–	–	–	–	–	–	–	–	–	–	–	–	–	–	–	–	–	–	–	–	effect on hair growth [5]: no detectable effect on hair growth
